In ChEMBL document CHEMBL3046514, “Synthesis of novel cyclobutylphosphonic acids as inhibitors of imidazole glycerol phosphate dehydratase” (Tetrahedron, 1997):

Test: Inhibition of purified Triticum aestivum (wheat) germ imidazole glycerol phosphate dehydratase

Point of comparison: O=P(O)(O)[C@@H]1CCC[C@](O)(c2nc[nH]n2)C1, IC50 0.018 µM. Against it:
- O=P(O)(O)[C@H]1C[C@@](O)(c2nc[nH]n2)C1 — 15000-fold higher, 270 µM
- O[C@@]1(c2nc[nH]n2)CCC[C@H](P(O)(O)=P)C1 — 100-fold higher, 1.8 µM
- O=P(O)(O)[C@@H]1CCC[C@](O)(c2nc[nH]n2)C1 (relative stereo) — 2.2-fold higher, 0.04 µM
- O=P(O)(O)[C@@H]1CCC[C@@](O)(c2nc[nH]n2)C1 (relative stereo) — 560-fold higher, 10 µM
